We go through eleven compounds from patent US4430427A, “Red absorbing combination of alcohol oxidase and an azide compound” (Phillips Petroleum Company, priority 1980, dated 1984).

For experiment [1], the target named is T1, Pichia alcohol oxidase (Komagataella phaffii, UniProt F2QY27).
T1 sequence (F2QY27 2-663 limits assumed): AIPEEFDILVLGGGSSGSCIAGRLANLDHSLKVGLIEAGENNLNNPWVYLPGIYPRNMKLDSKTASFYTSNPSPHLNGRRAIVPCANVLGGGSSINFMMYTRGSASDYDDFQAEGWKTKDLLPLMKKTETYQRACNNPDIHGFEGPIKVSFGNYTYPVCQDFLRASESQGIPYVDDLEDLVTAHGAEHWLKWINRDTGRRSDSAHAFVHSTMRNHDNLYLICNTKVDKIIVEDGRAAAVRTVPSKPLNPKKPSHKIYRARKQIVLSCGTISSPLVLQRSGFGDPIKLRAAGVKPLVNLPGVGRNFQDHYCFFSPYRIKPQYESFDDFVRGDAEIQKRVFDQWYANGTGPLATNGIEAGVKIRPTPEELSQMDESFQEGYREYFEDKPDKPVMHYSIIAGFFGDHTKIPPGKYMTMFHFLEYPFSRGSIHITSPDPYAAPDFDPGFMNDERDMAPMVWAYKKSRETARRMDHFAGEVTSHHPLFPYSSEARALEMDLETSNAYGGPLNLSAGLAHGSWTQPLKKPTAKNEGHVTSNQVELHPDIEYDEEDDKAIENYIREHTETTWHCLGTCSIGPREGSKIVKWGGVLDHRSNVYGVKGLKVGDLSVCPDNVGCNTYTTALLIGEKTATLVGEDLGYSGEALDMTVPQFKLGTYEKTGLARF
As to conditions: crude enzyme saturated with salt crystals; assayed 1-2 minutes later.
Protocol: The alcohol oxidase activity for reaction with methanol was determined by the following assay procedure (dye-peroxidase method). A dye-buffer mixture was prepared by mixing 0.1 mL of an o-dianisidine solution (1 weight % o-dianisdine in water) with 12 mL of aerated 0.1 M sodium phosphate buffer (pH 7.5). The assay mixture was prepared with 2.5 mL of the dye-buffer mixture, 50 μL of methanol, 10 μL of a peroxidase solution (1 mg of horse-radish peroxidase-Sigma, Type II), and 25 μL of the alcohol oxidase solution. The assay mixture was maintained at 25° C. in a 4×1×1 cm cuvette and the increase in absorbance by the dye at 460 nm was recorded for 2 to 4 minutes. The enzyme activity was calculated by [formula] wherein 11.5 is a factor based on a standard curve prepared with known aliquots of H2 O2 and ΔA is the change in absorbance during the experimental interval.

Experiment [2] addresses T1, Pichia alcohol oxidase. As for the experimental part:
The samples are allowed to stand at room temperature for 15 minutes. Color and enzyme activity are monitored at that time.

For experiment [3], the target named is Hansenula polymorpha alcohol oxidase (Pichia angusta, UniProt P04841). Conditions: 1 mL crude Hansenula polymorpha enzyme preparation, a few crystals (one mg). As for the experimental part:
Fermentation effluent from the aerobic fermentation of Hansenula polymorpha (prepared as described in Example II) was adjusted to pH 7.5 with concentrated ammonium hydroxide. Sample was homogenized and disrupted on a Dyno-Mill Model KDL using a 0.6 L vessel in a continuous operation at 30° C. using belt combination #3 and a flow of 20-30 mL/hr. The beads were lead-free glass beads with a diameter of 0.3-0.5 mm. The resulting homogenate was centrifuged for 20 minutes at 10,000×g to yield a cell-free supernatant.
One mL of this crude enzyme preparation was mixed with a few crystals (qualitative--one mg) of NaN3 is a test tube.

Experiment [4] deals with T2, purified Pichia alcohol oxidase (Komagataella phaffii, UniProt F2QY27).
T2 construct: saturated solution of purified Pichia alcohol oxidase; endogenous in cells
T2 sequence (F2QY27 2-663 limits assumed): T1 sequence (F2QY27 2-663 limits assumed)
Put plainly: biochemical. Format: biochemical, Pichia pastoris. How it is done: A series of solutions were prepared by combining 3.9 mL standard phosphate buffer (pH 7.5) having NaN3 (g/l) as set forth in Table 8, 15 μL saturated solution of purified Pichia alcohol oxidase, and 50 μL methanol solution (% V/V in H2 O). Reaction velocity V (rate of methanol oxidation in the presence of alcohol oxidase) was monitored by a dissolved oxygen probe by following oxygen consumption (oxygen is consumed as alcohol substrate, S, is oxidized in the presence of the enzyme).

In experiment [5] the target is alcohol oxidase (Komagataella phaffii, UniProt F2QY27). How it is done:
3 mL of purified enzyme containing 3 mg/mL enzyme (crystallized as described in Example I) were placed in a 1-cm quartz cuvette. The solution was scanned from 350-550 nm.
where [formula] ΔA522 =change in absorbance at 522 nm upon NaN3 addition, and
ΔA522^max =total change in absorbance at 522 nm upon saturation of enzyme solution with NaN3.

The structures appear in SMILES notation. Read-outs that look alike come from different tables or passages of the source.

Sequence of Hansenula polymorpha alcohol oxidase (P04841 2-664 limits assumed): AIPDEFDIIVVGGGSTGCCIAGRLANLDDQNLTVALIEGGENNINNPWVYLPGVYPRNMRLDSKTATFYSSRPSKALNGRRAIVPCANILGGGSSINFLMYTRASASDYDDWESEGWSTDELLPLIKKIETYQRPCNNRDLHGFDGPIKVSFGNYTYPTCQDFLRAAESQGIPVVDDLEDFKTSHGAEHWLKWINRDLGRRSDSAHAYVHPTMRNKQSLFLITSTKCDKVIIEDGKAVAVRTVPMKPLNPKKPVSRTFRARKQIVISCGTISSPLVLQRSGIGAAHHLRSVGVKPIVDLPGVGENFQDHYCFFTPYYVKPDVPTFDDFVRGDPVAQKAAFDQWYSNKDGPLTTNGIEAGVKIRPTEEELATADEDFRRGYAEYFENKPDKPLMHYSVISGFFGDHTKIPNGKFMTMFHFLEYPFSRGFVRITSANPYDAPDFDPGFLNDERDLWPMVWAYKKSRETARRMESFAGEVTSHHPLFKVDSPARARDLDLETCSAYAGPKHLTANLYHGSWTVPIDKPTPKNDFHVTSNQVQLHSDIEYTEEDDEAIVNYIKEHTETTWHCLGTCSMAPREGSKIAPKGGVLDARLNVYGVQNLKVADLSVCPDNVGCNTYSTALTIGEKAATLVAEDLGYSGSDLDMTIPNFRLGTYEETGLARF

Consider `[Cl-].[K+]` [KCl], for which the “Relative Enz. Act.” value in experiment [1] is 2.
Take `O=P([O-])(O)O.[K+]` [KH2 PO4]: in experiment [1], the “Relative Enz. Act.” value was 0.
On to `N#CS` [KSCN], for which the “EU/mL* at 15 min.” value in experiment [2] worked out at 25 EU/mL.
For `[Cl-].[Li+]` [LiCl], the “Relative Enz. Act.” value in experiment [1] came to 0.
For the compound `[Cl-].[Cl-].[Mg+2]` [MgCl2], the “Relative Enz. Act.” value in experiment [1] came to 0.
As to `O=P([O-])([O-])O.[Na+].[Na+]` [Na2 HPO4], in experiment [1], the “Relative Enz. Act.” value turned out to be 4.
For the compound `CC(=O)O` [NaAc], in experiment [1], the “Relative Enz. Act.” value is reported as 4.
On to `[Cl-].[Na+]` [NaCl], for which the “Relative Enz. Act.” value in experiment [1] was 1.
On to `O=P([O-])(O)O.[Na+]` [NaH2 PO4], for which, in experiment [1], the “Relative Enz. Act.” value was determined as 0.
For `[N-]=[N+]=[N-].[Na+]` [NaN3, sodium azide], the “Color at 15 min.” value in experiment [2] (a few crystals (about 1 mg) added to 1 mL purified enzyme solution, room temperature) is “Red immediately”. Besides, the “EU/mL* at 15 min.” value in experiment [2] (a few crystals (about 1 mg) added to 1 mL purified enzyme solution, room temperature, 15 min) is on record as 75 EU/mL. Besides, the “Color on mixing with crude enzyme preparation” value in experiment [3] is “Red color forms upon mixing”. The 1/V result in experiment [4] (NaN3 .0001 g/l, MeOH .004 M) was “.0488”; in experiment [4] (NaN3 .0001 g/l, MeOH .016 M), “.04”; in experiment [4] (NaN3 .0002 g/l, MeOH .0005 M), “.2632”; in experiment [4] (NaN3 .0002 g/l, MeOH .001 M) it was “.1429”; in experiment [4] (NaN3 .0002 g/l, MeOH .002 M), “.0725”; in experiment [4] (NaN3 .0002 g/l, MeOH .004 M) it was “.0588”. In addition, the 1/V result in experiment [4] (NaN3 .0002 g/l, MeOH .008 M) is “.0455”; in experiment [4] (NaN3 .0002 g/l, MeOH .016 M), “.0377”; in experiment [4] (NaN3 .0005 g/l, MeOH .0005 M) it was “.625”; in experiment [4] (NaN3 .0005 g/l, MeOH .001 M) it was “.4”; in experiment [4] (NaN3 .0005 g/l, MeOH .002 M) it was “.1667”; in experiment [4] (NaN3 .0005 g/l, MeOH .004 M), “.1111”. Moreover, the 1/V result in experiment [4] (NaN3 .0005 g/l, MeOH .008 M) was “.0813”; in experiment [4] (NaN3 .0005 g/l, MeOH .016 M), “.0602”; in experiment [4] (NaN3 .001 g/l, MeOH .001 M) it was 1; in experiment [4] (NaN3 .001 g/l, MeOH .002 M), “.333”; in experiment [4] (NaN3 .001 g/l, MeOH .004 M), “.1667”; in experiment [4] (NaN3 .001 g/l, MeOH .008 M) it was “.111”. Moreover, in experiment [4] (NaN3 .001 g/l, MeOH .016 M), the 1/V result is “.0645”. The Ki – broadly, a dissociation constant, usually derived from enzyme kinetics or from competition with a known ligand – in experiment [4] (estimated from 1/V vs 1/[S] plots, pH 7.5, read-out: binding constant for NaN3 inhibitor, Ki) was 6 µM. Moreover, the type of inhibition entry in experiment [4] (from 1/V vs 1/[S] plots) is on record as “linear, mixed-type inhibition”. Moreover, the “fractional saturation, .PHI.” value in experiment [5] (Excess (solid crystals) NaN3) is recorded as 1.000; in experiment [5] (Moles N3^-/Moles Enzyme 1.15), “.167”; in experiment [5] (Moles N3^-/Moles Enzyme 1.54), “.207”; in experiment [5] (Moles N3^-/Moles Enzyme 1.92), “.259”; in experiment [5] (Moles N3^-/Moles Enzyme 2.31), “.309”; in experiment [5] (Moles N3^-/Moles Enzyme 3.02), “.407”. The “fractional saturation, .PHI.” value in experiment [5] (Moles N3^-/Moles Enzyme 3.85) is recorded as “.475”; in experiment [5] (Moles N3^-/Moles Enzyme 4.61), “.525”; in experiment [5] (Moles N3^-/Moles Enzyme 5.38) it was “.580”; in experiment [5] (Moles N3^-/Moles Enzyme 6.25), “.630”; in experiment [5] (Moles N3^-/Moles Enzyme 6.92), “.679”; in experiment [5] (Moles N3^-/Moles Enzyme .38), “.062”. Also, the “fractional saturation, .PHI.” value in experiment [5] (Moles N3^-/Moles Enzyme .77) is “.105”. In addition, in experiment [5] (plot of .PHI. vs ligand/enzyme mole ratio), the “number of azide binding sites (extrapolation of the stoichiometric line to the baseline)” value is 7.6 moles of azide per mole of enzyme.
With `CO` [methanol], the Kd in experiment [4] (estimated from 1/V vs 1/[S] plots, pH 7.5, read-out: binding constant for methanol substrate, KS) was 600 µM.
